{"source": "patent US20100210467A1", "about": "“AGENT FOR IMPROVING SUGARCANE BRIX AND METHOD OF PROMOTING SUGARCANE RIPENING USING THE SAME” (Kumiai Chemical Industry Co., Ltd., priority 2007, published 2010)", "assay_type_in_all_cases": "in vivo", "key": {"[1]": {"test_system": "sugarcane", "assay": "Example 1: sugar content of sugarcane stem juice after power-sprayer application, field test in Brazil", "settings": "15 g/ha", "protocol": "With respect to sugarcane grown in a sugarcane cultivated area in Brazil (an average Brix value in the harvesttime being 18%), a juice was collected from 5 middle internodes selected at random in the sugarcane stem and the Brix value was measured according to a usual method. At the time the measured Brix value became 82% of the aforementioned average Brix value, a bispyribac-sodium formulation (a commercially available product, a tradename “NOMINEE 400SC”) was diluted with water so that the amount of the effective ingredient in 74 liters of the spraying liquid could be equal to the used amount shown in Table 1. The liquid was then sprayed above the plant by the aid of a power sprayer to a test area at a rate of 74 liters per hectare.\n(§1) In a control area, a known sulfometuron-methyl formulation (a commercially available product, a tradename “CURAVIAL”) was similarly sprayed.\nNext, 10 individual sugarcanes were cut from each area on the initial day of spraying, after 30 days of spraying and after 45 days of spraying, and thereafter the stem was squeezed and sugar was recovered from the juice to obtain the yield. Each yield was compared with the yield of the initial day of spraying and the rate of increase (%) was calculated.\n(§2) In accordance with “NORMAS DE AVALIAçÃO DA […] DA CANA-DE-AçÚCAR” used in Brazilian sugar refining plants as Standard for quality evaluation of sugarcane, the analysis on the sugar content in the squeezed juice of sugarcane stem was carried out for Brix value, sugar content in sugarcane (PC), and total sugar amount recoverable from sugarcane stem (ATR) as follows.\n(§3) Brix was measured according to a digital refractometer. PC was calculated according to the equation (1). ATR was calculated according to the equation (5).\nS denotes a sugar content in the extracted liquid and is calculated according to the equation (2). F denotes an amount of fibers in sugarcane and is calculated according to the equation (3). C denotes a conversion coefficient from the sugar content in the extracted liquid to an absolute amount and is calculated according to the equation (4).\nLAI denotes a measured value by the digital saccharimeter after clarification of the juice by a clarifying mixture made from aluminum.\nPBU denotes the mass of a wet bagasse exhausted from a pressing machine in the squeezed step of sugarcane stem.\nARC denotes an amount of reducing sugar of sugarcane and is calculated from the following equation (6).\nAR denotes an amount of reducing sugar in the extracted liquid and is calculated from the following equation (7)."}, "[2]": {"test_system": "sugarcane", "assay": "Example 3: sugar content of sugarcane stem juice after pyrimisulfan back pack spraying, field test in Brazil", "settings": "15 g/ha", "protocol": "as §2, §3\nAt the time the Brix value of sugarcane grown in a sugarcane cultivated area in Brazil (an average Brix value in the harvesttime being 18%) became 88% of the aforesaid average Brix value, pyrimisulfan (pyrimisulfan prepared by a method disclosed in JP2000-44546A) was diluted with water so that the amount of the effective ingredient in 105 liters of the spraying liquid could be equal to the used amount shown in Table 4, and the liquid was sprayed above the plant by the aid of a CO2-pressurized back pack sprayer to the test area at a rate of 105 liters per hectare.\nas §1\n(§4) Next, 20 individual sugarcanes were cut from each area on the initial day of spraying, after 15 days of spraying, after 30 days of spraying and after 45 days of spraying, and thereafter the stems were squeezed and sugar was recovered from the juice to obtain the yield. Each yield was compared with the yield of the initial day of spraying and the rate of increase (%) was calculated. The analysis on the sugar content in the squeezed juice of sugarcane stems was carried out similarly as in the case of Example 1."}, "[3]": {"test_system": "sugarcane", "assay": "Example 4: sugar content of sugarcane stem juice after pyribenzoxim back pack spraying, field test in Brazil", "settings": "15 g/ha", "protocol": "as §2, §3\nAt the time the Brix value of sugarcane grown in a sugarcane cultivated area in Brazil (an average Brix value in the harvesttime being 20%) became 86% of the aforesaid average Brix value, a pyribenzoxim formulation (a tradename “PYANCHOR”) was diluted with water so that the amount of the effective ingredient in 105 liters of the spraying liquid could be equal to the used amount shown in Table 6, and the liquid was sprayed above the plant by the aid of a CO2-pressurized back pack sprayer to the test area at a rate of 105 liters per hectare.\nas §1, §4"}, "[4]": {"test_system": "sugarcane", "assay": "Example 5: sugar content of sugarcane stem juice after bispyribac-sodium and/or gibberellin spraying, field test in Brazil", "settings": "15 g/ha", "protocol": "as §2, §3\nAt the time the Brix value of sugarcane grown in a sugarcane cultivated area in Brazil (an average Brix value in the harvesttime being 18%) became 88% of the aforesaid average Brix value, a bispyribac-sodium formulation (a commercially available product, a tradename, “NOMINEE 400SC”) and a gibberellin formulation (a commercially available product, a tradename, “PRO-GIBB”) were admixed together and diluted with water or separately diluted with water so that the amount of the effective ingredient in 105 liters of each of the spraying liquids could be equal to the used amount shown in Table 8, and each liquid was sprayed above the plant by the aid of a CO2-pressurized back pack sprayer to the test area at a rate of 105 liters per hectare.\nas §1, §4"}, "[5]": {"test_system": "sugarcane", "assay": "Example 2: sugar content of sugarcane stem juice after spraying from an aircraft, field test in Brazil", "settings": "50 g/ha; after 30 days of spraying", "protocol": "as §2, §3\nAt the time the Brix value of sugarcane grown in a sugarcane cultivated area in Brazil (an average Brix value in the harvesttime being 21%) became 81% of the aforesaid average Brix value, a bispyribac-sodium formulation (a commercially available product, a tradename “NOMINEE 400SC”) was diluted with water so that the amount of the effective ingredient in 30 liters of the spraying liquid could be equal to the used amount shown in Table 3, and the liquid was sprayed over the test area from an air-craft at a rate of 30 liters per hectare.\nIn a control area, a known fluazifop formulation (a commercially available product, a tradename “[…]”) was similarly sprayed.\nNext, 5 individual sugarcanes were cut from 5 locations in each area, i.e. 25 sugarcanes from each area, on the initial day of spraying and after 30 days of spraying, and thereafter the stems were squeezed and sugar was recovered from the juice to obtain the yield. The yield after 30 days of spraying was compared with the yield of the initial day of spraying and the rate of increase (%) was calculated. The analysis on the sugar content in the squeezed juice of sugarcane stems was carried out similarly as in the case of Example 1."}}, "data": [{"molecule": "COC(=O)c1ccccc1S(=O)(=O)NC(=O)Nc1nc(C)cc(C)n1", "note": "[Sulfometuron-methyl, sulfometuron-methyl]", "values": [{"measurement": "ATR increased rate from the initial day of spraying", "setting": "[1]; after 30 days of spraying", "result": 21.9, "unit": "%"}, {"measurement": "Brix increased rate from the initial day of spraying", "setting": "[1]; after 30 days of spraying", "result": 21.4, "unit": "%"}, {"measurement": "Concentration of soluble solid matter, Brix", "setting": "[1]; after 30 days of spraying", "result": 19.2, "unit": "%"}, {"measurement": "PC increased rate from the initial day of spraying", "setting": "[1]; after 30 days of spraying", "result": 24.3, "unit": "%"}, {"measurement": "Sugar content in sugarcane, PC", "setting": "[1]; after 30 days of spraying", "result": 13.9, "unit": "%"}, {"measurement": "Total sugar amount recoverable from 1 kg of stem, ATR", "setting": "[1]; after 30 days of spraying", "result": 138.1, "unit": "g"}, {"measurement": "ATR increased rate from the initial day of spraying", "setting": "[1]; after 45 days of spraying", "result": 31.2, "unit": "%"}, {"measurement": "Brix increased rate from the initial day of spraying", "setting": "[1]; after 45 days of spraying", "result": 29.6, "unit": "%"}, {"measurement": "Concentration of soluble solid matter, Brix", "setting": "[1]; after 45 days of spraying", "result": 20.5, "unit": "%"}, {"measurement": "PC increased rate from the initial day of spraying", "setting": "[1]; after 45 days of spraying", "result": 35.1, "unit": "%"}, {"measurement": "Sugar content in sugarcane, PC", "setting": "[1]; after 45 days of spraying", "result": 15.1, "unit": "%"}, {"measurement": "Total sugar amount recoverable from 1 kg of stem, ATR", "setting": "[1]; after 45 days of spraying", "result": 148.7, "unit": "g"}, {"measurement": "ATR increased rate from the initial day of spraying", "setting": "[2]; after 15 days of spraying", "result": 1.7, "unit": "%"}, {"measurement": "Brix increased rate from the initial day of spraying", "setting": "[2]; after 15 days of spraying", "result": 1.2, "unit": "%"}, {"measurement": "Concentration of soluble solid matter, Brix", "setting": "[2]; after 15 days of spraying", "result": 16.7, "unit": "%"}, {"measurement": "Total sugar amount recoverable from 1 kg of stem, ATR", "setting": "[2]; after 15 days of spraying", "result": 117.0, "unit": "g"}, {"measurement": "ATR increased rate from the initial day of spraying", "setting": "[2]; after 30 days of spraying", "result": 8.1, "unit": "%"}, {"measurement": "Brix increased rate from the initial day of spraying", "setting": "[2]; after 30 days of spraying", "result": 6.4, "unit": "%"}, {"measurement": "Concentration of soluble solid matter, Brix", "setting": "[2]; after 30 days of spraying", "result": 17.6, "unit": "%"}, {"measurement": "Total sugar amount recoverable from 1 kg of stem, ATR", "setting": "[2]; after 30 days of spraying", "result": 124.5, "unit": "g"}, {"measurement": "ATR increased rate from the initial day of spraying", "setting": "[2]; after 45 days of spraying", "result": "−0.6", "unit": "%"}, {"measurement": "Brix increased rate from the initial day of spraying", "setting": "[2]; after 45 days of spraying", "result": "−1.8", "unit": "%"}, {"measurement": "Concentration of soluble solid matter, Brix", "setting": "[2]; after 45 days of spraying", "result": 16.2, "unit": "%"}, {"measurement": "Total sugar amount recoverable from 1 kg of stem, ATR", "setting": "[2]; after 45 days of spraying", "result": 114.4, "unit": "g"}, {"measurement": "ATR increased rate from the initial day of spraying", "setting": "[3]; after 15 days of spraying", "result": "−3.2", "unit": "%"}, {"measurement": "Brix increased rate from the initial day of spraying", "setting": "[3]; after 15 days of spraying", "result": "−5.4", "unit": "%"}, {"measurement": "Concentration of soluble solid matter, Brix", "setting": "[3]; after 15 days of spraying", "result": 16.5, "unit": "%"}, {"measurement": "Total sugar amount recoverable from 1 kg of stem, ATR", "setting": "[3]; after 15 days of spraying", "result": 120.1, "unit": "g"}, {"measurement": "ATR increased rate from the initial day of spraying", "setting": "[3]; after 30 days of spraying", "result": 9.9, "unit": "%"}, {"measurement": "Brix increased rate from the initial day of spraying", "setting": "[3]; after 30 days of spraying", "result": 9.2, "unit": "%"}, {"measurement": "Concentration of soluble solid matter, Brix", "setting": "[3]; after 30 days of spraying", "result": 19.1, "unit": "%"}, {"measurement": "Total sugar amount recoverable from 1 kg of stem, ATR", "setting": "[3]; after 30 days of spraying", "result": 136.3, "unit": "g"}, {"measurement": "ATR increased rate from the initial day of spraying", "setting": "[3]; after 45 days of spraying", "result": 19.0, "unit": "%"}, {"measurement": "Brix increased rate from the initial day of spraying", "setting": "[3]; after 45 days of spraying", "result": 17.2, "unit": "%"}, {"measurement": "Concentration of soluble solid matter, Brix", "setting": "[3]; after 45 days of spraying", "result": 20.5, "unit": "%"}, {"measurement": "Total sugar amount recoverable from 1 kg of stem, ATR", "setting": "[3]; after 45 days of spraying", "result": 147.6, "unit": "g"}, {"measurement": "ATR increased rate from the initial day of spraying", "setting": "[4]; after 15 days of spraying", "result": 1.7, "unit": "%"}, {"measurement": "Brix increased rate from the initial day of spraying", "setting": "[4]; after 15 days of spraying", "result": 1.2, "unit": "%"}, {"measurement": "Concentration of soluble solid matter, Brix", "setting": "[4]; after 15 days of spraying", "result": 16.7, "unit": "%"}, {"measurement": "Total sugar amount recoverable from 1 kg of stem, ATR", "setting": "[4]; after 15 days of spraying", "result": 117.0, "unit": "g"}, {"measurement": "ATR increased rate from the initial day of spraying", "setting": "[4]; after 30 days of spraying", "result": 8.1, "unit": "%"}, {"measurement": "Brix increased rate from the initial day of spraying", "setting": "[4]; after 30 days of spraying", "result": 6.4, "unit": "%"}, {"measurement": "Concentration of soluble solid matter, Brix", "setting": "[4]; after 30 days of spraying", "result": 17.6, "unit": "%"}, {"measurement": "Total sugar amount recoverable from 1 kg of stem, ATR", "setting": "[4]; after 30 days of spraying", "result": 124.5, "unit": "g"}, {"measurement": "ATR increased rate from the initial day of spraying", "setting": "[4]; after 45 days of spraying", "result": "−0.6", "unit": "%"}, {"measurement": "Brix increased rate from the initial day of spraying", "setting": "[4]; after 45 days of spraying", "result": "−1.8", "unit": "%"}, {"measurement": "Concentration of soluble solid matter, Brix", "setting": "[4]; after 45 days of spraying", "result": 16.2, "unit": "%"}, {"measurement": "Total sugar amount recoverable from 1 kg of stem, ATR", "setting": "[4]; after 45 days of spraying", "result": 114.4, "unit": "g"}]}, {"molecule": "CC(Oc1ccc(Oc2ccc(C(F)(F)F)cn2)cc1)C(=O)O", "note": "(stereo not drawn) [Fluazifop, fluazifop]", "values": [{"measurement": "ATR increased rate from the initial day of spraying", "setting": "[5]", "result": 20.2, "unit": "%"}, {"measurement": "Brix increased rate from the initial day of spraying", "setting": "[5]", "result": 18.1, "unit": "%"}, {"measurement": "Concentration of soluble solid matter, Brix", "setting": "[5]", "result": 20.5, "unit": "%"}, {"measurement": "PC increased rate from the initial day of spraying", "setting": "[5]", "result": 22.0, "unit": "%"}, {"measurement": "Sugar content in sugarcane, PC", "setting": "[5]", "result": 15.1, "unit": "%"}, {"measurement": "Total sugar amount recoverable from 1 kg of stem, ATR", "setting": "[5]", "result": 146.0, "unit": "g"}]}]}
